These results are taken from publication PMC6203852 (British Journal of Cancer, 2018).

Series [1] can be described thus: Plasma pharmacokinetics of ARQ 501 (β-lapachone) after intravenous ARQ 761 (UHPLC-MS/MS, two-compartment model). It counts as in vivo, human. The conditions noted are these: plasma ARQ 501 after ARQ 761 infusions.
Procedure: During the first and fourth infusions of study drug, serial blood samples for determination of plasma ARQ 501 levels were drawn at the following time points: pre-infusion, infusion start, 15 min, 30 min, 60 min, 120 min (for the 2-h infusion cohort), 15 min post-infusion, 1 h post-infusion, 3 h post-infusion, 5 h post-infusion, 24 h post-infusion, 48 h post-infusion, and 168 h post-infusion. ARQ 501 plasma concentrations were determined using an ultra-high-performance liquid chromatography tandem mass spectrometric analytical method. This method utilised a Nexera Series UHPLC system (Shimadzu Corporation, Kyoto, Japan), which was interfaced with a Sciex QTRAP 5500 mass spectrometer (Foster City, CA, USA).
Sample preparation included a liquid–liquid extraction of ARQ 501 and the internal standard dihydrotanshone (IS) from plasma. Briefly, 100 µL of a 700 ng/mL solution of IS in methanol:acetonitrile (3:1) was added to a 2-mL Eppendorf tube and spun to dryness on a CentriVap benchtop vacuum concentrator (Labconco, Kansas City, USA). To the dried tube, 25-µL aliquots of plasma, 25-µL of blank plasma, and 200-µL de-ionised water were added and vortex mixed. To the resultant solution, a 1-mL aliquot of methyl tert-butyl ether:ethyl acetate (1:1) was added. The mixture was shaken for 10 min at 2500 rpm on a VWR shaker. Samples were then centrifuged for 10 min at 4000 rpm at 4.0 °C. […]
The conditions of series [2]: cited from earlier work.
Details of series [3]: method as in PMID 22532167. The conditions noted are these: animal models; cited from earlier work.

With `CC1(C)CCC2=C(O1)c1ccccc1C(=O)C2=O` [ARQ 501, β-lapachone], the “Accumulation, Dose 1 vs. Dose 4” value in series [1] is recorded as “does not accumulate to any appreciable extent”. The “Predominant dose-limiting toxicity (DLT)” value in series [2] is given as “haemolytic anaemia”. In series [2] (earlier ARQ 501 compound, no reference given), the MTD is recorded as 390 mg/m^2. Moreover, the Duration of methemoglobinaemia in series [3] is given as 5 min.
